Like-named read-outs stand apart in the source and are kept apart here.
Tests used:
GcoA = target: T1, GcoA (Amycolatopsis sp., UniProt P0DPQ7); assay: Determination of substrate dissociation constants with GcoA (UV/vis spectral shift titration; fluorescence quenching for vanillin); type: binding
T1 construct: GST (N, cleaved yes); made in house; host or cells: E. coli Rosetta 2 (DE3)
T1 sequence (P0DPQ7 1-407): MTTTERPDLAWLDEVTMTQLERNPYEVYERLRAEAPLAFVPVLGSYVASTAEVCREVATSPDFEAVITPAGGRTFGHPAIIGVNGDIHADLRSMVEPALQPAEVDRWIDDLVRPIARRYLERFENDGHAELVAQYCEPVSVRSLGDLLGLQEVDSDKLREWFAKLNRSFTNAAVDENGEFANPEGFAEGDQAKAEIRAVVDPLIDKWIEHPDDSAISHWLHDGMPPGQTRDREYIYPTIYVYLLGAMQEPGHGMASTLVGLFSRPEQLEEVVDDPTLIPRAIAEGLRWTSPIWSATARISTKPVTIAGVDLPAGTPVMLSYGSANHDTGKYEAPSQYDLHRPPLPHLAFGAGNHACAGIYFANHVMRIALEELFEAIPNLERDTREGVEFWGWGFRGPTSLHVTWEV
Experimental: A total of 0–60 µM of substrate analogs, in 0.25 or 0.5 µM aliquots, were titrated into a cuvette containing 1–6 µM GcoA in 25 mM HEPES, 50 mM NaCl, pH 7.5. The spectrum after each substrate addition was recorded, beginning with no substrate bound. The solution reached equilibrium before the next addition. A difference spectrum was made to illustrate the shift from a low-spin aquo-heme complex to the high-spin substrate-bound complex (spectral shift from 417 nm to 388 nm). […] The absorbance at 388 nm was plotted as a function of [substrate], yielding a quadratic curve that was fit to Eq. (7) to determine the KD.7 ΔAbsobs=ΔAbsmax/2EtL0+Et+KD-L0+Et+KD^2-4Et*L0. Where L0, Et, KD, and ΔAbsmax are the ligand concentrations, total protein (subunit) concentration, the equilibrium dissociation constant, and the maximum Abs388–417 nm, respectively. Reported values are the average of 2 or more measurements.
Since the UV/vis spectra of vanillin and heme overlap, fluorescence quenching was monitored to determine the KD. […] Fluorescence emission intensity was followed upon titration of vanillin (0–350 µM) after equilibrium had been established. The % fluorescence quenched, Eq. (8), was plotted as a function of vanillin and fit to Eq. (7) above, replacing ΔAbsmax with ΔFluorescencemax.8 %Fquenched=Fmax-Fintensity/Fmax×100%.

GcoAB [1] = target: T2, GcoAB (Amycolatopsis sp., UniProt P0DPQ7); assay: Aldehyde product determination (tryptophan assay for formaldehyde, dehydrogenase assay for acetaldehyde) versus NADH consumed; type: biochemical, Amycolatopsis sp. ATCC 39116; design: GST (N, cleaved yes); made in house; host or cells: E. coli Rosetta 2 (DE3); settings: formaldehyde (acetaldehyde for guaethol); saturating substrate, 300 μM NADH, 0.2 μM GcoAB
T2 sequence (P0DPQ7 1-407): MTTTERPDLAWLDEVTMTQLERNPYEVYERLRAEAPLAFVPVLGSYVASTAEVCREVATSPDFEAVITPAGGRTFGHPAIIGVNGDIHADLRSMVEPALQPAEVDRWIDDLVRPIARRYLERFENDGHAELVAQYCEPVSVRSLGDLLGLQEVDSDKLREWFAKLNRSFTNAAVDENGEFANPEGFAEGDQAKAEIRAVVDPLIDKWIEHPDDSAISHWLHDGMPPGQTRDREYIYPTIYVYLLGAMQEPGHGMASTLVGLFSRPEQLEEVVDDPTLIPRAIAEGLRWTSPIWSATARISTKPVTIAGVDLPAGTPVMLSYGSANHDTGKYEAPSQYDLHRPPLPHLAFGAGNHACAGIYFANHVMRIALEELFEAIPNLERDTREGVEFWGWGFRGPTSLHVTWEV
T2 sequence (P0DPQ8 1-334 partner): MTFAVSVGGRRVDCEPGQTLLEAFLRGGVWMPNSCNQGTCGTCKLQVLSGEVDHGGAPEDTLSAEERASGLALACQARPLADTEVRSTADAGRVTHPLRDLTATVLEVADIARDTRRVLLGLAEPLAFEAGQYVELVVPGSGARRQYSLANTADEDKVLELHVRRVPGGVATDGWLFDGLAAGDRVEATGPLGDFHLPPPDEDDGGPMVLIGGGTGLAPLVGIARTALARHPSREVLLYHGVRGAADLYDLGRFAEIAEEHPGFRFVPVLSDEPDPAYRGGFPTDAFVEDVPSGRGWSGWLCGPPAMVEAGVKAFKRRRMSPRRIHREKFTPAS
Text: For the quantification of formaldehyde (demethylation) or acetaldehyde (de-ethylation) production, the reaction was monitored via UV/vis or fluorescence (in the case of vanillin) using the same set of conditions as outlined above for specific activity determination. After eight minutes, aliquots of the sample were removed and carried onto the respective aldehyde detection assay. For reactions that produced formaldehyde (e.g., all substrates except guaethol), a colorimetric tryptophan assay was used, described previously. Briefly, 200 µL of the reaction was quenched by adding 200 µL of 0.1% tryptophan solution in 50% ethanol, 200 µL 90% sulfuric acid and 40 µL of 1% FeCl3. The solution was then incubated in a heating block for 90 min at 70 °C. After cooling, the absorbance was read at 575 nm and the [formaldehyde] calculated by comparing to a standard curve made with 0–320 µM formaldehyde. A reaction with just the assay components was treated in the same manner as the reaction samples and used as a baseline. Control reactions included everything but GcoA/B, catalase, and substrate. Reported values are the average of ≥3 measurements.
[Acetaldehyde] produced during the dealkylation of guaethol was also determined by using a colorimetric assay and a generated acetaldehyde standard curve. A kit from BioAssays was used. Briefly, 20 µL of the reacted sample was transferred to a 96-well plate and 80 µL of the working reagent, consisting of NAD/MTT and aldehyde dehydrogenase, was added. The reaction was incubated for 30 min at room temperature and the absorbance read at 565 nm. Aldehyde dehydrogenase and NAD react with acetaldehyde to produce acetic acid and NADH. […] Control reactions included samples without substrate and/or aldehyde dehydrogenase. Reported values are the average of ≥3 measurements.

GcoAB [2] = target: T2, GcoAB; assay: HPLC quantification of demethylated aromatic product versus NADH consumed; type: biochemical, Amycolatopsis sp. ATCC 39116; design: GST (N, cleaved yes); made in house; host or cells: E. coli Rosetta 2 (DE3); settings: saturating substrate, 300 μM NADH, 0.2 μM GcoAB
Experimental: Analyte analysis of samples was performed on an Agilent 1200 LC system (Agilent Technologies, Santa Clara, CA) equipped with a G1315A diode array detector (DAD). Each sample and standard was injected at a volume of 10 μL onto a Phenomenex Luna C18(2) column 5 μm, 4.6 × 150 mm column (Phenomenex, Torrance, CA). The column temperature was maintained at 30 °C and the buffers used to separate the analytes of interest was 0.05% acetic acid in water (A)/ acetonitrile (B). The separation was carried out using a gradient program of: (A) = 99% and (B) = 1% at time t = 0; (A) = 99% and (B) = 1% at time t = 5, (A) = 50% and (B) = 50% at t = 35 min; (A) = 1% and (B) = 99% at t = 35.01 min; (A) = 99% and (B) = 1% at t = 37.01 min; (A) = 99% and (B) = 1% at t = 47.00 min. The flow rate was held constant at 0.6 mL min^−1 resulting in a run time of 47 min. Calibration curve concentration for each analyte varied between the ranges of 2.5–200 µg L^−1. A DAD wavelength of 225 nm was used for analysis of the analytes of interest. […] A minimum of 3–5 calibration levels was used with an r^2 coefficient of 0.995 or better for each analyte and a check calibration standard (CCS) was analyzed every 10 samples to insure the integrity of the initial calibration.

LigX = system: T3, LigX; assay: Cited steady-state O-demethylation of 5,5'-dehydrodivanillate (10-500 uM) by 0.2 uM LigXa, 6 uM LigXc and 0.4 uM LigXd with 500 uM NADH in FE22 buffer, pH 6.0, 30 °C, air.; type: biochemical; settings: cited from earlier work
T3 construct: LigXa with LigXc and LigXd

GcoAB [3] = target: T2, GcoAB
Experimental: The demethylation of guaiacol and substrate analogs was continuously monitored under steady-state conditions. […] A total of 100 µg/mL catalase was added to each reaction to capture any H2O2 formed during the uncoupled reaction. […] A total of 20–300 µM guaiacol (preferred substrate) or an alternate substrate from a 2.5 mM stock dissolved in DMSO was added and the reaction was monitored via measurement of UV/vis spectra for several minutes. […] A plot of vi vs [guaiacol] was fit to Eq. (2) to obtain kcat, KM, and kcat/KM. For specific activity determination, the above method was used but with saturating (300 µM) guaiacol. […] Reported values are the average of ≥3 measurements and reported errors are standard deviations.
Reactions with vanillin were performed in the same manner described above.

[4] = 1–6 μM GcoA, 25 °C, 25 mM HEPES, 50 mM NaCl, pH 7.5, read-out: Compound KD

Compound	Kd (GcoA; [4]) [nM]	Aldehyde produced per NADH consumed (GcoAB [1])	Demethylated product: amount produced per NADH consumed (GcoAB [2])	Km (LigX) [µM]	reduction in kcat compared to guaiacol (GcoAB [3])	Kd (GcoA; binding to GcoA, read-out: KD) [nM]	specific activity (GcoAB [3]; 300 μM guaiacol, 0.2 μM GcoA/B, 300 μM NADH, pH 7.5, 25 °C)	kcat (GcoAB [3]; Supplementary Figure 20, 0.2 μM GcoA/B, 300 μM NADH, ambient O2, pH 7.5, 25 °C) [s⁻¹]	kcat (GcoAB [3]; Supplementary Table 4, 0.2 μM GcoA/B, 300 μM NADH, 5-300 μM guaiacol, pH 7.5, 25 °C, air) [s⁻¹]
COc1ccccc1C [2-methylanisole]	1000 ± 100	0.90 ± 0.1	0.20 ± 0.04						
COc1cccc(O)c1O [3-methoxycatechol]	3700 ± 100	0.90 ± 0.04	0.97 ± 0.002						
COc1cc(C(=O)O)cc(-c2cc(C(=O)O)cc(OC)c2O)c1O [5,5'-dehydrodivanillate]				64					
COc1ccccc1 [Anisole]	1700 ± 200	1.1 ± 0.01	0.62 ± 0.1						
CCOc1ccccc1O [Guaethol]	70 ± 30	1.5 ± 0.14	1.4 ± 0.3		almost fivefold reduction				
COc1ccccc1O [Guaiacol, 2-methoxyphenol]	6 ± 2	1.2 ± 0.15	1.2 ± 0.3			6	4.6 mM NADH sec-1 [mM GcoA]-1	6.8 ± 0.5	6.8 ± 0.5

Reference: PMC6021390, “A promiscuous cytochrome P450 aromatic O-demethylase for lignin bioconversion” (Nature Communications, 2018)
